This note sets out measurements from US20260092061A1, “COMPOUNDS FOR TARGETED PROTEIN DEGRADATION” (Amphista Therapeutics Limited, priority 2022, published 2026).

Where two headings read alike, the source gives them in different places.

The target in the test is T1, BRD9 (Homo sapiens, UniProt Q9H8M2).
T1 sequence (Q9H8M2 1-597): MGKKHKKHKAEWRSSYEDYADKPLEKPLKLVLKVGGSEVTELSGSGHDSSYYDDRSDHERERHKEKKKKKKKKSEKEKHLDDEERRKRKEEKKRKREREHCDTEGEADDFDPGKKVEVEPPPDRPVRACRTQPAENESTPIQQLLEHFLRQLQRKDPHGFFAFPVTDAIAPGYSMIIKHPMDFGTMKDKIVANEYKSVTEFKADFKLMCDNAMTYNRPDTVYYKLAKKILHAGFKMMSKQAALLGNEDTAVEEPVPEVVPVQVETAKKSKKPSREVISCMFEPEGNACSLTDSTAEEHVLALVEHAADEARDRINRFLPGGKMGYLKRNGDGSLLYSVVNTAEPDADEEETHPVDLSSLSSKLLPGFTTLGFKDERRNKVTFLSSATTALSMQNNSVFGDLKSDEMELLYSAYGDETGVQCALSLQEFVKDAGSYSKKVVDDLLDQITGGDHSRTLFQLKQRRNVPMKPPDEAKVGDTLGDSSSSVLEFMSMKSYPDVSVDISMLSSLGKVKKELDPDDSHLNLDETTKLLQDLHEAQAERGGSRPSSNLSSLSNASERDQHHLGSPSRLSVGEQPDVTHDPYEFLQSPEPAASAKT
Description: Degradation of BRD9 (IF), immunofluorescence in MV4-11 cells, 24 hours (Assay Protocol 2). It is filed as cell-based. Set-up: A suspension of MV4-11 cells (ATCC CRL-9591) was prepared; host or cells: MV4-11. As to conditions: BRD9 degradation. The method, boiled down:
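% BRD9 remaining, scaled between DMSO (high) and 100 nM CFT-8634 (low) control wells, derives from mean Alexa 647 contrast in central nuclei by high-content imaging. MV4-11 cells had 24 h compound exposure at 37° C. before PFA fixation, Triton permeabilisation and anti-BRD9 E4Q3F immunostaining.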

The mark [1] stands for this setting: Assay protocol 2, read-out: DC50.
Where [2] appears, read: MV4-11, Assay protocol 2, read-out: Dmax.

Broadly, the DC50 is the midpoint of the concentration-degradation curve. In general, Dmax refers to the greatest extent of degradation seen. As to `COc1cc(-c2cn(C)c(=O)c3[nH]ncc23)cc(OC)c1CN1CCN(Cc2cccc3c2CCN(C(=O)/C(C#N)=C/c2cccc(Br)n2)C3C)C2(CC2)C1` (mixture of isomers) [Compound B118, (E/Z)-3-(6-bromopyridin-2-yl)-2-(5-((7-(2,6-dimethoxy-4-(6-methyl-7-oxo-6,7-dihydro-1H-pyrazolo[3,4-c]pyridin-4-yl)benzyl)-4,7-diazaspiro[2.5]octan-4-yl)methyl)-1-methyl-1,2,3,4-tetrahydroisoquinoline-2-carbonyl)acrylonitrile], the 50% degradation concentration (DC50) under setting [1] was under 1.25 nM. In addition, the Dmax under setting [2] lay in the range of 70 to 75%.
For `COc1cc(-c2cn(C)c(=O)c(C)c2C)cc(OC)c1CN1CCN(Cc2ccc3c(c2)C(C)N(C(=O)/C(C#N)=C/C(C)(C)C)CC3)C2(CC2)C1` (mixture of isomers) [Compound C106, (E/Z)-2-(7-((7-(2,6-dimethoxy-4-(1,4,5-trimethyl-6-oxo-1,6-dihydropyridin-3-yl)benzyl)-4,7-diazaspiro[2.5]octan-4-yl)methyl)-1-methyl-1,2,3,4-tetrahydroisoquinoline-2-carbonyl)-4,4-dimethylpent-2-enenitrile], the DC50 under setting [1] was under 1.25 nM. In addition, the Dmax under setting [2] is over 75%.
The corresponding values for `CC[C@H]1CN(Cc2cccc3c2CCN(C(=O)/C(C#N)=C/C(C)(C)C)C3C)CCN1Cc1c(OC)cc(-c2cn(C)c(=O)c(C)c2C)cc1OC` (mixture of isomers) [Compound B135, (E/Z)-2-(5-(((S)-4-(2,6-dimethoxy-4-(1,4,5-trimethyl-6-oxo-1,6-dihydropyridin-3-yl)benzyl)-3-ethylpiperazin-1-yl)methyl)-1-methyl-1,2,3,4-tetrahydroisoquinoline-2-carbonyl)-4,4-dimethylpent-2-enenitrile] are 1.25 to 10 nM and over 75%.
The corresponding values for `COc1cc(-c2cn(C)c(=O)c(C)c2C)cc(OC)c1CN(C)Cc1cccc2c1CCN(C(=O)/C(C#N)=C/C(C)(C)C)C2C(C)C` (mixture of isomers) [Compound C95, (E/Z)-2-(5-(((2,6-dimethoxy-4-(1,4,5-trimethyl-6-oxo-1,6-dihydropyridin-3-yl)benzyl)(methyl)amino)methyl)-1-isopropyl-1,2,3,4-tetrahydroisoquinoline-2-carbonyl)-4,4-dimethylpent-2-enenitrile] are 10 to 25 nM and 40 to 70%.
For `COc1cc(-c2cn(C)c(=O)c(C)c2C)cc(OC)c1CN1CCN(Cc2ccc3c(c2)[C@@H](C(C)C)N(C(=O)/C(C#N)=C/C(C)(C)C)CC3)C2(CC2)C1` (single isomer, unassigned) [Compound C88, (E/Z)-2-(7-((7-(2,6-dimethoxy-4-(1,4,5-trimethyl-6-oxo-1,6-dihydropyridin-3-yl)benzyl)-4,7-diazaspiro[2.5]octan-4-yl)methyl)-1-isopropyl-1,2,3,4-tetrahydroisoquinoline-2-carbonyl)-4,4-dimethylpent-2-enenitrile], the DC50 under setting [1] was 25 to 1000 nM. Further, the Dmax under setting [2] is 40 to 70%.
The corresponding values for `COc1cc(-c2cn(C)c(=O)c(C)c2C)cc(OC)c1CN1CC[C@H](Oc2cccc(C3CCCN3C(=O)/C(C#N)=C/C(C)(C)C)c2)C1` (mixture of isomers) [Compound B67, (E/Z)-2-(2-(3-(((S)-1-(2,6-dimethoxy-4-(1,4,5-trimethyl-6-oxo-1,6-dihydropyridin-3-yl)benzyl)417yrrolidine-3-yl)oxy)phenyl)pyrrolidine-1-carbonyl)-4,4-dimethylpent-2-enenitrile] are 1.25 to 10 nM and over 75%.
For the compound `COc1cc(-c2cn(C)c(=O)c(C)c2C)cc(OC)c1CN1CC(Oc2cccc(C3CCCN3C(=O)/C(C#N)=C/C(C)(C)C)c2)C1` (mixture of isomers) [Compound B62, (E/Z)-2-(2-(3-((1-(2,6-dimethoxy-4-(1,4,5-trimethyl-6-oxo-1,6-dihydropyridin-3-yl)benzyl)azetidin-3-yl)oxy)phenyl)pyrrolidine-1-carbonyl)-4,4-dimethylpent-2-enenitrile], the DC50 under setting [1] lay within 1.25 to 10 nM. Further, under setting [2], the Dmax is over 75%.
The corresponding values for `COc1cc(-c2cn(C)c(=O)c(C)c2C)cc(OC)c1CN1CCN(Cc2cccc3c2CCN(C(=O)/C(C#N)=C/c2cccc(Br)n2)C3C)C2(CC2)C1` (mixture of isomers) [Compound C29] are 1.25 to 10 nM and 70 to 75%.
The corresponding values for `COc1cc(-c2cn(C)c(=O)c(C)c2C)cc(OC)c1CN1CCN(Cc2cccc3c2CCN(C(=O)/C(C#N)=C/C(C)(C)C)C3C(C)C)C2(CC2)C1` (mixture of isomers) [Compound C8, (E/Z)-2-(5-((7-(2,6-dimethoxy-4-(1,4,5-trimethyl-6-oxo-1,6-dihydropyridin-3-yl)benzyl)-4,7-diazaspiro[2.5]octan-4-yl)methyl)-1-isopropyl-1,2,3,4-tetrahydroisoquinoline-2-carbonyl)-4,4-dimethylpent-2-enenitrile] are under 1.25 nM and over 75%.
The corresponding values for `COc1cc(-c2cn(C)c(=O)c(C)c2C)cc(OC)c1CN1CCN(Cc2cccc3c2CCN(C(=O)/C(C#N)=C/C(C)(C)C)C3C(C)C)CC1` (mixture of isomers) [Compound C7, (E/Z)-2-(5-((4-(2,6-dimethoxy-4-(1,4,5-trimethyl-6-oxo-1,6-dihydropyridin-3-yl)benzyl)piperazin-1-yl)methyl)-1-isopropyl-1,2,3,4-tetrahydroisoquinoline-2-carbonyl)-4,4-dimethylpent-2-enenitrile] are under 1.25 nM and over 75%.
As for `COc1cc(-c2cn(C)c(=O)c(C)c2C)cc(OC)c1CN1C2CC1CN(C(=O)/C(C#N)=C/c1cccc(C(F)(F)F)n1)C2` (mixture of isomers) [Compound B188, (E/Z)-2-(6-(2,6-dimethoxy-4-(1,4,5-trimethyl-6-oxo-1,6-dihydropyridin-3-yl)benzyl)-3,6-diazabicyclo[3.1.1]heptane-3-carbonyl)-3-(6-(trifluoromethyl)pyridin-2-yl)acrylonitrile], the DC50 under setting [1] was under 1.25 nM. For the same compound, the Dmax under setting [2] was over 75%.
For `COc1cc(-c2cn(C)c(=O)c(C)c2C)cc(OC)c1CN1CCN(Cc2cccc3c2CCN(C(=O)/C(C#N)=C/C(C)(C)CF)[C@@H]3C(C)C)CC12CC2` (single isomer, unassigned) [Compound C103, (E/Z)-2-(5-((4-(2,6-dimethoxy-4-(1,4,5-trimethyl-6-oxo-1,6-dihydropyridin-3-yl)benzyl)-4,7-diazaspiro[2.5]octan-7-yl)methyl)-1-isopropyl-1,2,3,4-tetrahydroisoquinoline-2-carbonyl)-5-fluoro-4,4-dimethylpent-2-enenitrile], under setting [1], the DC50 was under 1.25 nM. Besides, under setting [2], the Dmax was over 75%.
The corresponding values for `COc1cc(-c2cn(C)c(=O)c(C)c2C)cc(OC)c1CN1CCN(Cc2cccc3c2CCN(C(=O)/C(C#N)=C/C2CCOCC2)C3C)C2(CC2)C1` (mixture of isomers) [Compound B137, (E/Z)-2-(5-((7-(2,6-dimethoxy-4-(1,4,5-trimethyl-6-oxo-1,6-dihydropyridin-3-yl)benzyl)-4,7-diazaspiro[2.5]octan-4-yl)methyl)-1-methyl-1,2,3,4-tetrahydroisoquinoline-2-carbonyl)-3-(tetrahydro-2H-pyran-4-yl)acrylonitrile] are 1.25 to 10 nM and over 75%.
Regarding `COc1cc(-c2cn(C)c(=O)c(C)c2C)cc(OC)c1C(=O)N1CCCN(C(=O)/C(C#N)=C/C(C)(C)C)CC1` [BRD9v, (E/Z)-2-(4-(2,6-dimethoxy-4-(1,4,5-trimethyl-6-oxo-1,6-dihydropyridin-3-yl)benzoyl)-1,4-diazepane-1-carbonyl)-4,4-dimethylpent-2-enenitrile], the Dmax (MV4-11, Table 4, determined according to Assay Protocol 2, read-out: Dmax^2) fell in the range of 50 to 70%. Also, under “Table 4, determined according to Assay Protocol 2, read-out: DC50^2”, the DC50 was under 25 nM.
Regarding `COc1cc(-c2cn(C)c(=O)c(C)c2C)cc(OC)c1C(=O)N1CCC(Oc2cccc(C3CCCN3C(=O)/C(C#N)=C/C(C)(C)C)c2)CC1` (mixture of isomers) [Compound B79, (E/Z)-2-(2-(3-((1-(2,6-dimethoxy-4-(1,4,5-trimethyl-1-oxo-1,6-dihydropyridin-3-yl)benzoyl)piperidin-4-yl)oxy)phenyl)pyrrolidine-1-carbonyl)-4,4-dimethylpent-2-enenitrile], under setting [1], the DC50 is under 1.25 nM. For the same compound, the maximal degradation (Dmax) under setting [2] lay in the range of 70 to 75%.
In the case of `COc1cc(-c2cn(C)c(=O)c(C)c2C)cc(OC)c1CN1CC(Cc2cccc3c2CCN(C(=O)/C(C#N)=C/C(C)(C)C)C3C)C1` (stereo not shown) [Compound C49], the Dmax under setting [2] fell in the range of 40 to 70%.
